Experimental data taken from patent US8901087B2, “Selective glycosidase inhibitors and uses thereof” (priority 2010, dated 2014).

Columns and labels:
human O-GlcNAcase = human O-GlcNAcase (Homo sapiens (Human), UniProt O60502); assay: Fluorescence-based assay for determination of KI values for inhibition of O-GlcNAcase activity; assay type: biochemical; conditions: purified human O-GlcNAcase, 4-Methylumbelliferyl N-acetyl-β-D-glucosaminide substrate, pH 7.0, Cheng-Prusoff; read-out: Fluorescence-based hOGA Ki
Description: Assay for Determination of KI Values for Inhibition of O-GlcNAcase Activity
Experimental Procedure for Kinetic Analyses
Enzymatic reactions are carried out in a reaction containing 50 mM NaH2PO4, 100 mM NaCl and 0.1% BSA (pH 7.0) using 2 mM 4-Methylumbelliferyl N-acetyl-β-D-glucosaminide dihydrate (Sigma M2133) dissolved in ddH2O, as a substrate. The amount of purified human O-GlcNAcase enzyme used in the reaction is 0.7 nM. Test compound of varying concentrations is added to the enzyme prior to initiation of the reaction. The reaction is performed at room temperature in a 96-well plate and is initiated with the addition of substrate. […] The slope of product production is determined for each concentration of compound tested and plotted, using standard curve fitting algorithms for sigmoidal dose response curves. The values for a four parameter logistic curve fit of the data are determined.

O-GlcNAcase = O-GlcNAcase (Rattus norvegicus, UniProt Q8VIJ5); assay: Cell-based ELISA for cellular activity of O-GlcNAcase inhibitors (O-GlcNAcylated protein level, RL-2 antibody); conditions: increase in O-GlcNAcylated protein, cells treated 24 hours, RL-2 antibody ELISA
From the text: Assay for Determination of Cellular Activity for Compounds that Inhibit O-GlcNAcase Activity
Inhibition of O-GlcNAcase, which removes O-GlcNAc from cellular proteins, results in an increase in the level of O-GlcNAcylated protein in cells. An increase in O-GlcNAcylated protein can be measured by an antibody, such as RL-2, that binds to O-GlcNAcylated protein. The amount of O-GlcNAcylated protein:RL2 antibody interaction can be measured by enzyme linked immunosorbant assay (ELISA) procedures.

Sequence of human O-GlcNAcase (O60502 whole entry): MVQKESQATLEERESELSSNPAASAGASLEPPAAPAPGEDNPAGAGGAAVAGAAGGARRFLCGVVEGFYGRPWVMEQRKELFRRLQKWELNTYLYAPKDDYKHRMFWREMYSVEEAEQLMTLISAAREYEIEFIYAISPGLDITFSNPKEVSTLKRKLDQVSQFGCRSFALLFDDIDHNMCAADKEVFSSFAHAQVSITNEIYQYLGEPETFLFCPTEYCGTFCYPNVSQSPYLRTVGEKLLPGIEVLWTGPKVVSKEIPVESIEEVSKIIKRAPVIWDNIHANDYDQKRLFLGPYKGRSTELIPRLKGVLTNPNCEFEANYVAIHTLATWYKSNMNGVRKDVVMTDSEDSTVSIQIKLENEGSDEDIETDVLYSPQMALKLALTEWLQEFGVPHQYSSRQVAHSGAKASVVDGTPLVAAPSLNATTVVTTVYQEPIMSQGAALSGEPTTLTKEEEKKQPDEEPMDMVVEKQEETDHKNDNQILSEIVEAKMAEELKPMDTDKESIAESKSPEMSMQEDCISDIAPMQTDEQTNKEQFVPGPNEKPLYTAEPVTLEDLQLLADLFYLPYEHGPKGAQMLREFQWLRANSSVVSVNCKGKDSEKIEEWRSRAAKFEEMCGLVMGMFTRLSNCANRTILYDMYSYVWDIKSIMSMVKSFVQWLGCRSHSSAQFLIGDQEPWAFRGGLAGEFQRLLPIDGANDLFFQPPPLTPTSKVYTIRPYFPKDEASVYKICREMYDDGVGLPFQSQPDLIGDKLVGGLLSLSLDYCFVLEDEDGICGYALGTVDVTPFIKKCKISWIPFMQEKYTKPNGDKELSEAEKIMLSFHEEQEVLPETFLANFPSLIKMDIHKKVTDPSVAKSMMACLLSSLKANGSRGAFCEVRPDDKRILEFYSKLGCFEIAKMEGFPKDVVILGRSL
Sequence of O-GlcNAcase (Q8VIJ5 whole entry, looked up): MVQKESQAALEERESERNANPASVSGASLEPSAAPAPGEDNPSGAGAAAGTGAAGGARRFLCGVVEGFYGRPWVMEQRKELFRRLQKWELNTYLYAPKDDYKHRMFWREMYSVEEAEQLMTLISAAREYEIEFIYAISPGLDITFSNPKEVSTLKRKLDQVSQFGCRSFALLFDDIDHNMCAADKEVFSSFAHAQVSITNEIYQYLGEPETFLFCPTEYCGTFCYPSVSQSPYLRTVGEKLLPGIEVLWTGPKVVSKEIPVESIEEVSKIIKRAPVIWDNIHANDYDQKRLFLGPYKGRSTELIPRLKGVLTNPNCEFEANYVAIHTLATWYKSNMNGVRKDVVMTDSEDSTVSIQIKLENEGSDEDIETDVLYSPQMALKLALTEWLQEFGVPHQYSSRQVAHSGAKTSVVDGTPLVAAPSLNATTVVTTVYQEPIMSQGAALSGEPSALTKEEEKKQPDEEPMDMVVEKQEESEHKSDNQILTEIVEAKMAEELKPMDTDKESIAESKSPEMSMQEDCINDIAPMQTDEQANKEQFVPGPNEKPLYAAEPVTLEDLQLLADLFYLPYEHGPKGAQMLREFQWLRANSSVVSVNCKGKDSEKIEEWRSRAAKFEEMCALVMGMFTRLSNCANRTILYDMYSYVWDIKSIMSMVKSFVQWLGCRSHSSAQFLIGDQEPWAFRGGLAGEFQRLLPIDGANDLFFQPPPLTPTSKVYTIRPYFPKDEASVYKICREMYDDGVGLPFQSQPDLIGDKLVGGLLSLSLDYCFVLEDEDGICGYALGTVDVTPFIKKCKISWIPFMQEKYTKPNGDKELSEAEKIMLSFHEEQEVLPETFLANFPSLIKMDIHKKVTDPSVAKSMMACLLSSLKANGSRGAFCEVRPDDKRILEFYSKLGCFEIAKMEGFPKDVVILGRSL

CN(C)C1=N[C@@H]2[C@@H](OCc3ccccc3)[C@H](COCc3ccccc3)[C@@H](C(O)C3SCCCS3)O[C@@H]2S1 (some centres unmarked) [Example 96]
Ki (human O-GlcNAcase): 0.19 nM
EC50 (O-GlcNAcase): 4.55 nM
